Experimental data from patent publication US10160747B2, “Compounds and methods for kinase modulation, and indications therefor” (Plexxikon Inc., priority 2016, dated 2018).

Assays:
[1] = system: MOLM-14 F691L (endogenous FLT3 ITD and transfected FLT3 F691L); assay: MOLM-14 F691L cell proliferation assay (CellTiter-Glo); format: cell-based; conditions: Homo sapiens, MOLM-14, 72 h; 3 d growth, GMean
Procedure, shortened: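 MOLM-14 cells (FLT3 ITD) carrying D835Y or F691L, 1×10^4 cells/well, eight 1:3 dilutions from 1 μM final, 0.2% DMSO, 3 days at 37 °C, 5% CO2. Viability by CellTiter-Glo luminescence (ATP content); IC50 from concentration-response.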

[2] = target: T1, FLT3-ITD (Homo sapiens, UniProt P36888); assay: FLT3-ITD recombinant enzyme kinase assay (AlphaScreen); format: biochemical; conditions: 8 pt; read-out: FLT3_ITD 8 pt: IC50
T1 sequence (P36888 1-993): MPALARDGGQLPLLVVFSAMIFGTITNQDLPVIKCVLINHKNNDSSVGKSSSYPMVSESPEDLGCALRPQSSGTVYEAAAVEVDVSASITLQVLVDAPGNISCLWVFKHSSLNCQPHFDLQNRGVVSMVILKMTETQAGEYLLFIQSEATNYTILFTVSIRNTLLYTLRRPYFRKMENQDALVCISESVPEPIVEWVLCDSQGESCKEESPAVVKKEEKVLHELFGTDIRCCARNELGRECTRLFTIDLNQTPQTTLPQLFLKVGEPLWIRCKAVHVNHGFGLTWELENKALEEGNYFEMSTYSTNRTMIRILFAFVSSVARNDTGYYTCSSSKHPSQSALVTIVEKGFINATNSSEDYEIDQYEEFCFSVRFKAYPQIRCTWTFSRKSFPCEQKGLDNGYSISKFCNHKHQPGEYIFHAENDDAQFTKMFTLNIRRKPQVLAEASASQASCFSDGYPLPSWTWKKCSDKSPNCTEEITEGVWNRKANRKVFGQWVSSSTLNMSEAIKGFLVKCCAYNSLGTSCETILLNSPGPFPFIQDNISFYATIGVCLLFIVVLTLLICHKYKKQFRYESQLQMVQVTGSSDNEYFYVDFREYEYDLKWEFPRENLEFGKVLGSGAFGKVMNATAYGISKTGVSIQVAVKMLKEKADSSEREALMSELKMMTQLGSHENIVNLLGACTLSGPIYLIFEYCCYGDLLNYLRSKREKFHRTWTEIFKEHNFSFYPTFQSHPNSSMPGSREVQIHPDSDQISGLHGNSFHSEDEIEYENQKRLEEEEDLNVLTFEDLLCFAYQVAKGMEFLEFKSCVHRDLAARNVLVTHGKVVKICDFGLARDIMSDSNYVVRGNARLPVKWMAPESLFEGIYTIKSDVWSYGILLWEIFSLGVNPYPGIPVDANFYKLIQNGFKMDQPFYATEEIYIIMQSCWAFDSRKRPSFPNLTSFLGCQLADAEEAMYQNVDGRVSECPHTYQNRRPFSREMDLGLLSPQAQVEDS
Procedure, shortened: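 IC50 values are derived from reduced AlphaScreen signal as inhibitors block tyrosine phosphorylation of a biotinylated poly(Glu4-Tyr) peptide (30 nM) by recombinant kinase. FLT3 variants are run at 10 μM ATP, c-KIT at 100 μM.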

IC50 [1]: 0.0001 to 10 µM
IC50 [2]: 0.0001 to 10 µM
Compound: COCCn1cc(Nc2ncc(-c3ccc(CC(=O)Nc4ccc(C(F)(F)F)cn4)cc3)cn2)cn1 [Compound P-0274, 2-[4-[2-[[1-(2-methoxyethyl)pyrazol-4-yl]amino]pyrimidin-5-yl]phenyl]-N-[5-(trifluoromethyl)-2-pyridyl]acetamide]
